According to US8575158B2, “1-phenyl-substituted heterocyclyl derivatives and their use as prostaglandin D2 receptor modulators” (Actelion Pharmaceuticals Ltd., priority 2010, dated 2013):

Biological target: T1, hCRTH2 receptor (Homo sapiens, UniProt Q9Y5Y4)
T1 construct: expressed in transfected cells; host or cells: HEK293
T1 sequence (Q9Y5Y4 1-395): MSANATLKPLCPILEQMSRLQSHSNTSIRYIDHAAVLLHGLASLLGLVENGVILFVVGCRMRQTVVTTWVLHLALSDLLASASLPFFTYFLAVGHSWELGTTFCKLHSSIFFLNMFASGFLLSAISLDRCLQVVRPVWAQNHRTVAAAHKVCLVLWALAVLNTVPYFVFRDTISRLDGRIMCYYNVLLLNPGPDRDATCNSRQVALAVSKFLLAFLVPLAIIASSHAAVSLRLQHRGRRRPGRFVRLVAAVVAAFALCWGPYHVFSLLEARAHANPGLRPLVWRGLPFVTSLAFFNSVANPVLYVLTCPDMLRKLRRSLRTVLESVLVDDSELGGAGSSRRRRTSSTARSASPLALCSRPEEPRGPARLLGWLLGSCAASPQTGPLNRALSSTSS
Assay: Radioligand displacement assay (3H-PGD2) on hCRTH2 receptor membranes
Assay type: binding
Settings: antagonistic activity

[1] = 3H-PGD2 displacement on HEK293-hCRTH2 membrane fragments
[2] = 3H-PGD2 radioligand displacement, HEK293-hCRTH2 membranes

Row | Structure (SMILES) | IC50 [1] [nM] | IC50 [2] [nM] | further results
1 | O=C(O)COc1ccc(Cl)cc1C1c2ccccc2CCN1C(=O)OCc1c(F)cccc1F (racemic) [Example 250] | 6.84 |  | 
2 | Cc1nc(COC(=O)N2CCc3ccccc3[C@H]2c2cc(Cl)ccc2OCC(=O)O)cs1 [Example 278, (S)-1-(2-Carboxymethoxy-5-chloro-phenyl)-3,4-dihydro-1H-isoquinoline-2-carboxylic acid 2-methyl-thiazol-4-ylmethyl ester] | 1.28 |  | 
3 | O=C(O)COc1ccc(Cl)cc1C1c2ccc(F)cc2CCN1C(=O)OCc1ccccc1 (racemic) [Example 226, (±)-1-(2-Carboxymethoxy-5-chloro-phenyl)-6-fluoro-3,4-dihydro-1H-isoquinoline-2-carboxylic acid benzyl ester] | 5.23 |  | 
4 | Cc1cc(COC(=O)N2CCc3ccccc3[C@H]2c2cc(Cl)ccc2OCC(=O)O)on1 [Example 279, (S)-1-(2-Carboxymethoxy-5-chloro-phenyl)-3,4-dihydro-1H-isoquinoline-2-carboxylic acid 3-methyl-isoxazol-5-ylmethyl ester] | 0.87 |  | 
5 | Cc1ccccc1CCC(=O)N1CCc2cc(F)ccc2C1c1cc(Cl)ccc1OCC(=O)O (racemic) [Example 435] |  | 46.5 | 
6 | COc1ccccc1OC(=O)N1CCc2ccccc2C1c1cc(F)ccc1OCC(=O)O (racemic) [Example 168] | 109 |  | 
7 | O=C(O)COc1ccc(Cl)cc1C1c2ccccc2CCN1C(=O)CCc1ccccc1C(F)(F)F (racemic) [Example 90, (±)-(4-Chloro-2-{2-[3-(2-trifluoromethyl-phenyl)-propionyl]-1,2,3,4-tetrahydro-isoquinolin-1-yl}-phenoxy)-acetic acid] | 45.8 |  | 
8 | CC(C)(CC(=O)N1CCc2ccccc2C1c1cc(F)ccc1OCC(=O)O)c1ccccc1 (racemic) [Example 46, (±)-{4-Fluoro-2-[2-(3-methyl-3-phenyl-butyryl)-1,2,3,4-tetrahydro-isoquinolin-1-yl]-phenoxy}-acetic acid] | 916 |  | 
9 | COc1cccc2c1ccn2CCC(=O)N1CCc2ccccc2C1c1cc(Cl)ccc1OCC(=O)O (racemic) [Example 382] |  | 20.7 | 
10 | O=C(O)COc1ccc(Cl)cc1[C@@H]1c2ccccc2CCN1C(=O)[C@@H]1C[C@H]1c1ccccc1C(F)(F)F [Example 562, (4-Chloro-2-{(S)-2-[(1R,2R)-2-(2-trifluoromethyl-phenyl)-cyclopropanecarbonyl]-1,2,3,4-tetrahydro-isoquinolin-1-yl}-phenoxy)-acetic acid] |  |  | IC50 (radioligand displacement (3H-PGD2), hCRTH2 receptor membranes): 3.75 nM
11 | O=C(O)COc1ccc(F)cc1C1c2ccccc2CCN1C(=O)CCc1ccccc1 (racemic) [Example 123, (±)-{4-Fluoro-2-[2-(3-phenyl-propionyl)-1,2,3,4-tetrahydro-isoquinolin-1-yl]-phenoxy}-acetic acid] | 152 |  | 
12 | Cc1cc(C)n(CCOC(=O)N2CCc3c(ccc(F)c3F)[C@H]2c2cc(Cl)ccc2OCC(=O)O)n1 [Example 316, (S)-1-(2-Carboxymethoxy-5-chloro-phenyl)-5,6-difluoro-3,4-dihydro-1H-isoquinoline-2-carboxylic acid 2-(3,5-dimethyl-pyrazol-1-yl)-ethyl ester] |  | 5.07 | 
13 | CCS(=O)(=O)c1ccc(OCC(=O)O)c(C2c3ccccc3CCN2C(=O)OCc2ccccc2)c1 (racemic) [Example 184] | 346 |  | 
14 | N#Cc1ccc(OCC(=O)O)c(C2c3ccccc3CCN2C(=O)OCc2ccccc2)c1 (racemic) [Example 219, (±)-1-(2-Carboxymethoxy-5-cyano-phenyl)-3,4-dihydro-1H-isoquinoline-2-carboxylic acid benzyl ester] | 4.72 |  | 
15 | CN(CC(=O)N1CCc2ccccc2C1c1cc(F)ccc1OCC(=O)O)S(=O)(=O)c1ccc(F)c(F)c1 (racemic) [Example 212] | 920 |  | 
16 | O=C(O)COc1ccc(Cl)cc1C1c2ccccc2CN1C(=O)CCn1ncc2cc(F)ccc21 (single isomer, unassigned) [Example 527, (4-Chloro-2-{2-[3-(5-fluoro-indazol-1-yl)-propionyl]-2,3-dihydro-1H-isoindol-1-yl}-phenoxy)-acetic acid] |  | 8.12 | 
17 | O=C(O)COc1ccc(Cl)cc1C1c2ccccc2CCN1C(=O)OCc1cccc(F)c1F (racemic) [Example 249] | 3.86 |  | 

Row | Structure (SMILES) | IC50 [1] [nM] | IC50 [2] [nM] | further results
18 | O=C(O)COc1ccc(Cl)cc1C1c2ccccc2CCN1C(=O)COc1cccnc1Cl (racemic) [Example 471] |  | 87.6 | 
19 | O=C(O)COc1ccc(F)cc1C1c2ccccc2CCN1C(=O)COCc1cccc(Cl)c1 (racemic) [Example 190] | 16.9 |  | 
20 | N#Cc1ccc(OCC(=O)O)c(C2c3ccccc3CCN2C(=O)[C@@H]2C[C@H]2c2ccccc2)c1 (mixture of isomers) [Example 218, (±)-{4-Cyano-2-[2-(trans-2-phenyl-cyclopropanecarbonyl)-1,2,3,4-tetrahydro-isoquinolin-1-yl]-phenoxy}-acetic acid] | 13.4 |  | 
21 | O=C(O)COc1ccc(Cl)cc1C1c2ccccc2CCN1C(=O)[C@@H]1C[C@H]1c1cccc(F)c1 (mixture of isomers) [Example 424] |  | 12 | 
22 | COc1ncc(C)cc1OCC(=O)N1CCc2ccccc2C1c1cc(Cl)ccc1OCC(=O)O (racemic) [Example 484] |  | 161 | 
23 | O=C(O)COc1ccc(Cl)cc1C1c2ccccc2CN1C(=O)OCc1ccccc1 (stereo not drawn) [Example 231, 1-(2-Carboxymethoxy-5-chloro-phenyl)-1,3-dihydro-isoindole-2-carboxylic acid benzyl ester] | 2.65 |  | 
24 | COc1cccc(COCC(=O)N2CCc3ccccc3C2c2cc(F)ccc2OCC(=O)O)c1 (racemic) [Example 195] | 36.3 |  | 
25 | O=C(O)COc1ccc(Cl)cc1C1c2ccccc2CCN1C(=O)NCc1ccccc1Cl (racemic) [Example 490] |  | 15.1 | 
26 | O=C(O)COc1ccc(Cl)cc1C1c2ccccc2CCN1C(=O)CCOc1cccc(F)c1 (racemic) [Example 87, (±)-(4-Chloro-2-{2-[3-(3-fluoro-phenoxy)-propionyl]-1,2,3,4-tetrahydro-isoquinolin-1-yl}-phenoxy)-acetic acid] | 17.8 |  | 
27 | O=C(O)COc1ccc(F)cc1C1c2cc(-c3cncnc3)ccc2CCN1C(=O)OCc1ccccc1 (racemic) [Example 498] |  | 381 | 
28 | O=C(O)COc1ccc(Cl)cc1C1c2ccccc2CCN1C(=O)CCn1ccc2ccc(Cl)cc21 (racemic) [Example 386] |  | 11.6 | 
29 | COc1ccccc1CNC(=O)N1CCc2ccccc2C1c1cc(Cl)ccc1OCC(=O)O (racemic) [Example 202] | 7.29 |  | 
30 | O=C(O)COc1ccc(Cl)cc1C1c2ccc(F)c(F)c2CCN1C(=O)OCc1ccccc1 (racemic) [Example 15, (±)-1-(2-Carboxymethoxy-5-chloro-phenyl)-5,6-difluoro-3,4-dihydro-1H-isoquinoline-2-carboxylic acid benzyl ester] | 10.1 |  | 
31 | O=C(O)COc1ccc(Cl)cc1C1c2ccccc2CCN1C(=O)COc1cc(Cl)nc(Cl)c1 (racemic) [Example 473] |  | 650 | 
32 | O=C(O)COc1ccc(Cl)cc1C1c2ccccc2CCN1C(=O)COCc1ccccc1 (racemic) [Example 105, (±)-{2-[2-(2-Benzyloxy-acetyl)-1,2,3,4-tetrahydro-isoquinolin-1-yl]-4-chloro-phenoxy}-acetic acid] | 9.95 |  | 
33 | COc1ccc2onc(CC(=O)N3Cc4ccccc4C3c3cc(Cl)ccc3OCC(=O)O)c2c1 (racemic) [Example 518] |  | 20.1 | 
